From patent US9745285B2, “Heteroaryl substituted pyrazoles” (BAYER PHARMA AKTIENGESELLSCHAFT, priority 2013, dated 2017)
pIC50: −log10 of the molar value.

Experiments:
[1] = target: T1, catalytic domain of human Bub1 (amino acids 704-1085) (Homo sapiens, UniProt O43683); experiment: Bub1 kinase assay (TR-FRET); format: biochemical; conditions: 10 μM ATP, 1 μM peptide substrate, median value, read-out: Biological Assay 1: Bub1 kinase assay median IC50
T1 construct: catalytic domain of human Bub1 (amino acids 704-1085); His6 (N); made in house; host or cells: Hi5 insect cells
Excerpt: Bub1-inhibitory activities of compounds described in the present invention were quantified using a time-resolved fluorescence energy transfer (TR-FRET) kinase assay which measures phosphorylation of the synthetic peptide Biotin-Ahx-VLLPKKSFAEPG (C-terminus in amide form), purchased from e.g. Biosyntan (Berlin, Germany) by the (recombinant) catalytic domain of human Bub1 (amino acids 704-1085), expressed in Hi5 insect cells with an N-terminal His6-tag and purified by affinity—(Ni-NTA) and size exclusion chromatography.
In a typical assay 11 different concentrations of each compound (0.1 nM, 0.33 nM, 1.1 nM, 3.8 nM, 13 nM, 44 nM, 0.15 μM, 0.51 μM, 1.7 μM, 5.9 μM and 20 μM) were tested in duplicate within the same microtiter plate. To this end, 100-fold concentrated compound solutions (in DMSO) were previously prepared by serial dilution (1:3.4) of 2 mM stocks in a clear low volume 384-well source microtiter plate (Greiner Bio-One, Frickenhausen, Germany), from which 50 nL of compounds were transferred into a black low volume test microtiter plate from the same supplier. Subsequently, 2 μL of Bub1 (the final concentration of Bub1 was adjusted depending on the activity of the enzyme lot in order to be within the linear dynamic range of the assay: typically 200 ng/mL were used) in aqueous assay buffer [50 mM Tris/HCl pH 7.5, 10 mM magnesium chloride (MgCl2), 200 mM potassium chloride (KCl), 1.0 mM dithiothreitol (DTT), 0.1 mM sodium orthovanadate, 1% (v/v) glycerol, 0.01% (w/v) bovine serum albumine (BSA), 0.005% (v/v) Trition X-100 (Sigma), 1× Complete EDTA-free protease inhibitor mixture (Roche)] were added to the compounds in the test plate and the mixture was incubated for 15 min at 22° C. to allow pre-equilibration of the putative enzyme-inhibitor complexes before the start of the kinase reaction, which was initiated by the addition of 3 μL 1.67-fold concentrated solution (in assay buffer) of adenosine-triphosphate (ATP, 10 μM final concentration) and peptide substrate (1 μM final concentration). […] Subsequently, the amount of product was evaluated by measurement of the resonance energy transfer from the Eu-chelate-antibody complex recognizing the Phosphoserine residue to the streptavidin-XL665 bound to the biotin moiety of the peptide. To this end, the fluorescence emissions at 620 nm and 665 nm after excitation at 330-350 nm were measured in a TR-FRET plate reader, e.g. a Rubystar or Pherastar (both from BMG Labtechnologies, Offenburg, Germany) or a Viewlux (Perkin-Elmer) and the ratio of the emissions (665 nm/622 nm) was taken as indicator for the amount of phosphorylated substrate. […] IC50 values were calculated by fitting the normalized inhibition data to a 4-parameter logistic equation (Minimum, Maximum, IC50, Hill; Y=Max+(Min−Max)/(1+(X/IC50)Hill)).

[2] = tested on: HeLa human cervical cancer cell line; experiment: Proliferation assay (HeLa cell line, crystal violet); format: cell-based; conditions: 96 h, HeLa cells, 4 days incubation, crystal violet staining, median value, read-out: Biological Assay 2: Proliferation assay (HeLa cell line) median IC50
Description: Cultivated tumor cells (cells were ordered from ATCC) were plated at a density of 3000 cells/well in a 96-well multititer plate in 200 μL of growth medium supplemented 10% fetal calf serum. After 24 hours, the cells of one plate (zero-point plate) were stained with crystal violet (see below), while the medium of the other plates was replaced by fresh culture medium (200 μL), to which the test substances were added in various concentrations (0 μM, as well as in the range of 0.001-10 μM; the final concentration of the solvent dimethyl sulfoxide was 0.5%). The cells were incubated for 4 days in the presence of test substances. Cell proliferation was determined by staining the cells with crystal violet: the cells were fixed by adding 20 μL/measuring point of an 11% glutaric aldehyde solution for 15 minutes at room temperature. After three washing cycles of the fixed cells with water, the plates were dried at room temperature. The cells were stained by adding 100 μL/measuring point of a 0.1% crystal violet solution (pH 3.0). […] Absorption was determined by photometry at a wavelength of 595 nm.
The change of cell number, in percent, was calculated by normalization of the measured values to the absorption values of the zero-point plate (=0%) and the absorption of the untreated (0 μm) cells (=100%). The IC50 values were determined by means of a 4 parameter fit.

T1 sequence (O43683 704-1085): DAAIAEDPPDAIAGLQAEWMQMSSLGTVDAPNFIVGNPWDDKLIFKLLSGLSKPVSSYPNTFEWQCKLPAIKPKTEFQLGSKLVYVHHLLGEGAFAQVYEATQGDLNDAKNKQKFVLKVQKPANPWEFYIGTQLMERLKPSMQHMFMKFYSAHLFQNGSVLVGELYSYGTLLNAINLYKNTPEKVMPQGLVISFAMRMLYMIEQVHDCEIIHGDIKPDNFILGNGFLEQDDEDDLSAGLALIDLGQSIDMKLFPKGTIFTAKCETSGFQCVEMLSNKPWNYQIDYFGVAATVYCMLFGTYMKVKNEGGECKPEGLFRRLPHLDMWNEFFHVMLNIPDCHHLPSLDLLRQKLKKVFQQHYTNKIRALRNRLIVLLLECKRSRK

pIC50 [1]	pIC50 [2]	Compound
8.05		COc1cnc(-c2nn(Cc3c(Cl)cnn3C)c(C3CC3)c2C)nc1Nc1ccncc1 [Example 2-1-1, 2-{1-[(4-chloro-1-methyl-1H-pyrazol-5-yl)methyl]-5-cyclopropyl-4-methyl-1H-pyrazol-3-yl}-5-methoxy-N-(pyridin-4-yl)pyrimidin-4-amine]
7.80	< 5.00	COc1cnc(-c2nn(Cc3c(C)noc3C)c(C3CC3)c2C)nc1Nc1ccncc1C(N)=O [Example 2-2-1, 4-[(2-{5-cyclopropyl-1-[(3,5-dimethyl-1,2-oxazol-4-yl)methyl]-4-methyl-1H-pyrazol-3-yl}-5-methoxypyrimidin-4-yl)amino]nicotinamide]
5.68		CCOC(=O)c1cnccc1Nc1nc(-c2nn(Cc3nnc(C)o3)c(C3CC3)c2C)ncc1OC [Example 2-4-2, ethyl 4-[(2-{5-cyclopropyl-4-methyl-1-[(5-methyl-1,3,4-oxadiazol-2-yl)methyl]-1H-pyrazol-3-yl}-5-methoxypyrimidin-4-yl)amino]pyridine-3-carboxylate]
6.17	< 5.00	COc1cnc(-c2nn(Cc3nnc(C)o3)c(C3CC3)c2C)nc1Nc1ccncc1C(N)=O [Example 2-5-1, 4-[(2-{5-cyclopropyl-4-methyl-1-[(5-methyl-1,3,4-oxadiazol-2-yl)methyl]-1H-pyrazol-3-yl}-5-methoxypyrimidin-4-yl)amino]pyridine-3-carboxamide]
